Earlier results on two molecules are cited in patent US20190274986A1, “STERILE INJECTABLE COMPOSITION COMPRISING MELPHALAN” (CADILA HEALTHCARE LIMITED, priority 2018, published 2019).

Assay in series [1]: not given
The source holds these as a separate data set.

Where two headings read alike, the source gives them in different places.

As for `Cl.N[C@@H](Cc1ccc(N(CCCl)CCCl)cc1)C(=O)O` [Melphalan, 4-[bis(2-chloroethyl)amino]-L-phenylalanine hydrochloride], the Solubility entry was “freely soluble” (in 1 N HCl), “freely soluble” (in methanol) and “practically insoluble” (in water).
Turning to sulfobutylether beta-cyclodextrin, the “Dose with evidence of renal cellular toxicity” value in series [1] (animal studies, repeated administration over 1-6 months) is not below 160 mg/kg/day. Besides, in series [1] (animal studies, repeated administration, even at much higher doses), the “Renal function on repeated administration” value is listed as “renal function was not impaired”. The “Renal effect in single-dose studies” value in series [1] (animal trials, single-dose up to 2000 mg/kg i.v.) is “renal tolerance”.
